# Measured values published in PubChem BioAssay (NCI).
#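 Test compounds were applied to cells in 96-well plates for 48 hours at 5 doses. GI50: concentration for 50% inhibition of growth. TGI: concentration producing complete growth inhibition.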
# What was measured:
# Experiment in all cases: NCI-60 cell line screen, 48 h
# [1] = test system: UACC-62 melanoma
# [2] = test system: MDA-MB-231 breast
# [3] = test system: NCI/ADR-RES ovarian
# [4] = test system: OVCAR-3 ovarian
# [5] = test system: IGROV1 ovarian
# [6] = test system: OVCAR-5 ovarian
# [7] = test system: KM12 colon
# [8] = test system: HCT-15 colon
# [9] = test system: NCI-H522 lung
# [10] = test system: SF-295 CNS
# [11] = test system: NCI-H226 lung
# [12] = test system: SF-268 CNS
# [13] = test system: DU-145 prostate
# [14] = test system: OVCAR-8 ovarian
# [15] = test system: SK-MEL-5 melanoma
# [16] = test system: HL-60(TB) leukemia
# [17] = test system: A549 NSCLC
# [18] = test system: SNB-19 CNS
# [19] = test system: CCRF-CEM leukemia
# [20] = test system: COLO 205 colon
# [21] = test system: K-562 leukemia
# [22] = test system: HS 578T breast
# [23] = test system: HOP-92 NSCLC
# [24] = test system: U251 CNS
# [25] = test system: MCF7 breast
# [26] = test system: SNB-75 CNS
# [27] = test system: M14 melanoma
# [28] = test system: MOLT-4 leukemia
# [29] = test system: SK-MEL-28 melanoma
# [30] = test system: NCI-H460 lung
# [31] = test system: HT29 colon
# [32] = test system: A498 renal
# [33] = test system: LOX IMVI melanoma
# [34] = test system: NCI-H23 lung
# [35] = test system: CAKI-1 renal
# [36] = test system: SN12C renal
# [37] = test system: TK-10 renal
# [38] = test system: RXF 393 renal
# [39] = test system: HOP-62 NSCLC
# [40] = test system: SK-MEL-2 melanoma
# [41] = test system: 786-0 renal
# [42] = test system: UACC-257 melanoma
# [43] = test system: SW-620 colon
# [44] = test system: RPMI-8226 leukemia
# [45] = test system: BT-549 breast
# [46] = test system: SR leukemia
# [47] = test system: UO-31 renal
# [48] = test system: ACHN renal
# [49] = test system: HCC-2998 colon
# [50] = test system: T-47D breast
# [51] = test system: MALME-3M melanoma
# [52] = test system: HCT-116 colon
# [53] = test system: PC-3 prostate
# [54] = test system: SK-OV-3 ovarian
# [55] = test system: MDA-MB-435
# [56] = test system: OVCAR-4 ovarian
# [57] = test system: SF-539 CNS
structure (smiles),measurement,setting,value
CCN(Cc1cc(F)cc(F)c1)c1ccc(CO)c(Cl)c1,GI50,[1],0.115 µM
same,TGI,[1],0.909 µM
same,GI50,[2],13 µM
same,TGI,[2],26.7 µM
same,GI50,[3],14.8 µM
same,TGI,[3],38.4 µM
same,GI50,[4],0.342 µM
same,TGI,[4],2.31 µM
same,GI50,[5],0.0726 µM
same,TGI,[5],0.38 µM
same,GI50,[6],0.0668 µM
same,TGI,[6],0.287 µM
same,GI50,[7],13 µM
same,TGI,[7],26.6 µM
same,GI50,[8],12.4 µM
same,TGI,[8],29.9 µM
same,GI50,[9],13.5 µM
same,TGI,[9],29.4 µM
same,GI50,[10],0.379 µM
same,TGI,[10],14.3 µM
same,GI50,[11],0.0801 µM
same,TGI,[11],0.214 µM
same,GI50,[12],15.5 µM
same,TGI,[12],31.3 µM
same,GI50,[13],15.4 µM
same,TGI,[13],34.2 µM
same,GI50,[14],13.4 µM
same,TGI,[14],34.7 µM
same,GI50,[15],11.8 µM
same,TGI,[15],24.2 µM
same,GI50,[16],7.25 µM
same,TGI,[16],32.7 µM
same,GI50,[17],2.36 µM
same,TGI,[17],21.5 µM
same,GI50,[18],14.9 µM
same,TGI,[18],41.2 µM
same,GI50,[19],18.5 µM
same,TGI,[19],66.5 µM
same,GI50,[20],3 µM
same,TGI,[20],10.5 µM
same,GI50,[21],1.04 µM
same,TGI,[21],23 µM
same,GI50,[22],16.4 µM
same,TGI,[22],44.7 µM
same,GI50,[23],0.195 µM
same,TGI,[23],9.25 µM
same,GI50,[24],0.992 µM
same,TGI,[24],16.4 µM
same,GI50,[25],0.208 µM
same,TGI,[25],12.8 µM
same,GI50,[26],8.49 µM
same,TGI,[26],27.3 µM
same,GI50,[27],15.3 µM
same,TGI,[27],32.4 µM
same,GI50,[28],18.3 µM
same,TGI,[28],51 µM
same,GI50,[29],13.7 µM
same,TGI,[29],26.8 µM
same,GI50,[30],0.205 µM
same,TGI,[30],12.5 µM
same,GI50,[31],3.74 µM
same,TGI,[31],17.1 µM
same,GI50,[32],0.0343 µM
same,TGI,[32],0.167 µM
same,GI50,[33],14.4 µM
same,TGI,[33],28.2 µM
same,GI50,[34],12.3 µM
same,TGI,[34],33.5 µM
same,GI50,[35],0.456 µM
same,TGI,[35],2.64 µM
same,GI50,[36],12.1 µM
same,TGI,[36],25.2 µM
same,GI50,[37],0.0425 µM
same,TGI,[37],0.236 µM
same,GI50,[38],2.54 µM
same,TGI,[38],17.5 µM
same,GI50,[39],2.67 µM
same,TGI,[39],20.2 µM
same,GI50,[40],4.43 µM
same,TGI,[40],20.2 µM
same,GI50,[41],12.5 µM
same,TGI,[41],27.2 µM
same,GI50,[42],0.0986 µM
same,TGI,[42],0.429 µM
same,GI50,[43],0.652 µM
same,TGI,[43],18.6 µM
same,GI50,[44],2.48 µM
same,TGI,[44],26.1 µM
same,GI50,[45],14.4 µM
same,TGI,[45],29.1 µM
same,GI50,[46],17.2 µM
same,TGI,[46],43.6 µM
same,GI50,[47],3.24 µM
same,TGI,[47],21.4 µM
same,GI50,[48],13.3 µM
same,TGI,[48],27 µM
same,GI50,[49],7.68 µM
same,TGI,[49],23.6 µM
same,GI50,[50],0.118 µM
same,TGI,[50],0.782 µM
same,GI50,[51],15 µM
same,TGI,[51],30.4 µM
same,GI50,[52],0.0723 µM
same,TGI,[52],8.31 µM
same,GI50,[53],12.5 µM
same,TGI,[53],27.1 µM
same,GI50,[54],10.5 µM
same,TGI,[54],25.7 µM
same,GI50,[55],14.4 µM
same,TGI,[55],30 µM
same,GI50,[56],0.168 µM
same,TGI,[56],2.73 µM
same,GI50,[57],15.1 µM
same,TGI,[57],29.5 µM
